Test results as given in the Kinase Knowledgebase extract (Sharma et al. 2016).
≈ marks a conversion by molar mass, not a printed value.

Target: EGFR (UniProt P00533)
Sequence (P00533 whole entry, looked up): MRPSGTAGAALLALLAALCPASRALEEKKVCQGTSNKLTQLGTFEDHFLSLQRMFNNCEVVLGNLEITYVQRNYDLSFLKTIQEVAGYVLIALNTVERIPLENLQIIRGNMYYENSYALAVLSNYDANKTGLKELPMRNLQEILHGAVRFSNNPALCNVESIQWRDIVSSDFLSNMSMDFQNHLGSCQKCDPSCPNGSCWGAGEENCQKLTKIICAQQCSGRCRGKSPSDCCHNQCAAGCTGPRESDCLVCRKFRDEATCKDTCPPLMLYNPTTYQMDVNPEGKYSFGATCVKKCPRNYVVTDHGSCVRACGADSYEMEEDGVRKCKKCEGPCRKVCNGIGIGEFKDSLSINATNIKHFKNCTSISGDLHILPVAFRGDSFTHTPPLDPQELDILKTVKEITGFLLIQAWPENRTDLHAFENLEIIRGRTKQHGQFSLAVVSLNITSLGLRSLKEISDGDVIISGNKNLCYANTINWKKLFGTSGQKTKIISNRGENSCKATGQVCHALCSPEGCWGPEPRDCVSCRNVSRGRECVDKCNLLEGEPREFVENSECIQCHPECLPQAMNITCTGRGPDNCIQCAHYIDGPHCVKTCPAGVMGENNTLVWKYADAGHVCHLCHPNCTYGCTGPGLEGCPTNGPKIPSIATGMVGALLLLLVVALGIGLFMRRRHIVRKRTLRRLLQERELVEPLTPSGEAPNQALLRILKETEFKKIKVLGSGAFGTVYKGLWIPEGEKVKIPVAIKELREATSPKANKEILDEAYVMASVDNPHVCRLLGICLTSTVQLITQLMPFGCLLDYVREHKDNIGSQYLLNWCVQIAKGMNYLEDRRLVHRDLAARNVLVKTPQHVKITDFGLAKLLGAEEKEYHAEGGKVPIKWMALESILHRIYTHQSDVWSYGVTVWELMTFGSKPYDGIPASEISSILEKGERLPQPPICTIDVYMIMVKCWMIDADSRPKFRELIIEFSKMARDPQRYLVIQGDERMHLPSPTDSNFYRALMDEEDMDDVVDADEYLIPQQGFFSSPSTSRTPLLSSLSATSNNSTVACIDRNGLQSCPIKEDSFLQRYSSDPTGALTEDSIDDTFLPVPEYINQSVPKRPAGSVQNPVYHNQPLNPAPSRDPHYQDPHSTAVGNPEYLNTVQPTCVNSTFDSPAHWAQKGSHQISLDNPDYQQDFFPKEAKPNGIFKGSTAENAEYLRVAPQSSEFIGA

Compound	IC50
COc1cc(Nc2ncnc(-n3c(NCc4ccc(Cl)cc4C)nc4ccccc43)n2)cc(OC)c1OC	3.5 to 4.5 µg/mL (≈ 6.58 to 8.46 µM)
COc1cccc(-c2ncnc(Nc3cc(OC)c(OC)c(OC)c3)n2)c1	2.4 to 3.5 µg/mL (≈ 6.51 to 9.5 µM)
O=C(O)Cc1cccc(Nc2ncnc(Nc3ccc(Cl)cc3F)n2)c1	0.4 to 2.4 µg/mL (≈ 1.07 to 6.42 µM)
COc1cc(Nc2ncnc(-c3cccnc3NC(C)C)n2)ccc1NC(=O)CCCN1CCNCC1	> 4.5 µg/mL
COC(=O)c1ccc(-c2cc(Nc3ncnc(NCc4cccs4)n3)[nH]n2)cc1	2.4 to 3.5 µg/mL (≈ 5.89 to 8.59 µM)
COc1cc(Nc2ncnc(N(CCC(C)C)c3ccc(Cl)cc3)n2)cc(OC)c1OC	< 0.4 µg/mL
COC(=O)c1cccc(Nc2nc3ccccc3n2-c2ncnc(Nc3cc(OC)c(OC)c(OC)c3)n2)c1	> 4.5 µg/mL
COc1cc(Nc2ncnc(N3CCCC4CCCCC43)n2)cc(OC)c1OC (stereo not drawn)	< 0.4 µg/mL
COc1ccc2c(c1)c(CCNC(C)=O)cn2-c1ncnc(Nc2cc(OC)c(OC)c(OC)c2)n1	> 4.5 µg/mL
COc1ccc(Nc2ncnc(Nc3ccc(N4CCCCC4)cc3)n2)cc1OC	0.4 to 2.4 µg/mL (≈ 0.984 to 5.9 µM)
COc1ccc(Nc2ncnc(NCc3c(C)cccc3Cl)n2)cc1OC	> 4.5 µg/mL
COc1cc(Nc2ncnc(-n3c(NCc4ccccc4Cl)nc4ccccc43)n2)cc(OC)c1OC	> 4.5 µg/mL
Cc1ccc2c(c1)CCCN2c1ncnc(Nc2cc[nH]n2)n1	0.4 to 2.4 µg/mL (≈ 1.3 to 7.81 µM)
COc1ccc(Nc2ncnc(NCCCN3CCCCC3C)n2)cc1OC (stereo not drawn)	> 4.5 µg/mL
Cc1ccc(Nc2ncnc(N)n2)cc1	> 4.5 µg/mL
N#Cc1ccc(Nc2ncnc(-c3cccs3)n2)cc1	> 4.5 µg/mL
Cc1cccc(Nc2ncnc(Nc3cccc(Br)c3)n2)c1	< 0.4 µg/mL
FC(F)(F)c1cccc(Nc2ncnc(-n3cccc3)n2)c1	> 4.5 µg/mL
COc1cc(Nc2ncnc(Nc3cccc4ncccc34)n2)cc(OC)c1OC	2.4 to 3.5 µg/mL (≈ 5.93 to 8.65 µM)
Nc1nc2ccccc2n1-c1ncnc(Nc2cccc(Cl)c2)n1	0.4 to 2.4 µg/mL (≈ 1.18 to 7.11 µM)
CC(C)(C)c1cc(Nc2ncnc(Nc3ccc(CO)cc3)n2)[nH]n1	0.4 to 2.4 µg/mL (≈ 1.18 to 7.07 µM)
COCCOc1ccc(Nc2ncnc(-n3c(N)nc4ccccc43)n2)cc1OCCOC	> 4.5 µg/mL
COc1cc(Nc2ncnc(-n3c(NCc4cccs4)nc4ccccc43)n2)cc(OC)c1OC	0.4 to 2.4 µg/mL (≈ 0.817 to 4.9 µM)
Fc1ccc(Nc2ncnc(Nc3ccc4[nH]ccc4c3)n2)cc1Cl	< 0.4 µg/mL
COc1cc(Nc2ncnc(-c3cccnc3NCc3ccccc3)n2)cc(OC)c1OC	> 4.5 µg/mL
COc1cc(Nc2ncnc(N(CC(=O)O)c3ccc4c(c3)OCO4)n2)cc(OC)c1OC	0.4 to 2.4 µg/mL (≈ 0.878 to 5.27 µM)
CCN(c1cccc(C)c1)c1ncnc(Nc2cc(OC)c(OC)c(OC)c2)n1	< 0.4 µg/mL

Compound	IC50
COc1cc(Nc2ncnc(-c3c(O)[nH]c4ccc(Cl)cc34)n2)cc(OC)c1OC	2.4 to 3.5 µg/mL (≈ 5.61 to 8.18 µM)
COc1ccc(Sc2ncnc(Nc3cc(OC)c(OC)c(OC)c3)n2)cc1	> 4.5 µg/mL
CN(c1cccc(Cl)c1)c1ncnc(Nc2ccc(OC(F)(F)F)cc2)n1	0.4 to 2.4 µg/mL (≈ 1.01 to 6.06 µM)
COc1ccc(Nc2ncnc(Nc3cc(OC)c(OC)c(OC)c3)n2)cc1OC	3.5 to 4.5 µg/mL (≈ 8.47 to 10.9 µM)
Cc1cccc(Nc2ncnc(-n3cccc3)n2)c1C	> 4.5 µg/mL
COc1cc(Nc2ncnc(-n3c(Nc4ccc(C)cc4)nc4ccccc43)n2)cc(OC)c1OC	> 4.5 µg/mL
COc1cc(Nc2ncnc(-n3c(N)nc4cc(Cl)ccc43)n2)cc(OC)c1OC.COc1cc(Nc2ncnc(-n3c(N)nc4ccc(Cl)cc43)n2)cc(OC)c1OC	> 4.5 µg/mL
CCOC(=O)CNc1ncnc(N2CCCc3cc(C)ccc32)n1	> 4.5 µg/mL
COc1ccc(Nc2ncnc(-n3cccc3)n2)c(OC)c1	> 4.5 µg/mL
COc1ccc(Nc2ncnc(N(C)[C@H](C)c3ccccc3)n2)cc1OC	0.4 to 2.4 µg/mL (≈ 1.09 to 6.57 µM)
COc1ccc2c(c1)nc(NCc1ccc(F)cc1)n2-c1ncnc(Nc2cc(OC)c(OC)c(OC)c2)n1.COc1ccc2nc(NCc3ccc(F)cc3)n(-c3ncnc(Nc4cc(OC)c(OC)c(OC)c4)n3)c2c1	2.4 to 3.5 µg/mL
COc1cc(Nc2ncnc(-n3c(NCc4cccc(Cl)c4)nc4ccccc43)n2)cc(OC)c1OC	> 4.5 µg/mL
COc1cc(Nc2ncnc(-n3c(NCc4ccc(N(C)C)cc4)nc4ccccc43)n2)cc(OC)c1OC	2.4 to 3.5 µg/mL (≈ 4.56 to 6.65 µM)
c1ccc(Cn2ncc3cc(Nc4ncnc(NCC5CCCCC5)n4)ccc32)cc1	> 4.5 µg/mL
CCOC(=O)Cc1ccc(Nc2ncnc(-c3ccccc3)n2)cc1	> 4.5 µg/mL
O=c1[nH]c2ccccc2n1-c1ncnc(Nc2ccncn2)n1	2.4 to 3.5 µg/mL (≈ 7.84 to 11.4 µM)
CN(c1cccc(Cl)c1)c1ncnc(Nc2ccc(OCCO)cc2)n1	< 0.4 µg/mL
COc1cc(Nc2ncnc(Nc3cc(OC)c(OC)c(OC)c3)n2)cc(OC)c1OC	3.5 to 4.5 µg/mL (≈ 7.89 to 10.1 µM)
COc1cc(Nc2ncnc(-c3cccnc3NCCC(C)(C)C)n2)cc(OC)c1OC	> 4.5 µg/mL
COc1cc(C)c(Nc2ncnc(-c3cccs3)n2)cc1OC	> 4.5 µg/mL
COc1cc(Br)ccc1Nc1nc2ccccc2n1-c1ncnc(Nc2cc(OC)c(OC)c(OC)c2)n1	> 4.5 µg/mL
COc1cc(CNc2ncnc(Nc3cc(-c4ccco4)n[nH]3)n2)cc(OC)c1OC	> 4.5 µg/mL
COc1cc(Nc2ncnc(-n3c(NCc4ccc(F)cc4)nc4ccccc43)n2)cc(OC)c1OC	> 4.5 µg/mL
COc1ccc(CNc2ncnc(Nc3cc(OC)c(OC)c(OC)c3)n2)cc1	> 4.5 µg/mL
COc1cc(Nc2ncnc(-c3cccnc3Nc3ccc(Cl)cc3C)n2)cc(OC)c1OC	> 4.5 µg/mL
COc1cc(Nc2ncnc(-c3cccnc3Nc3ccccc3C)n2)cc(OC)c1OC	> 4.5 µg/mL
